Legend:
Tryptase = Tryptase (Homo sapiens, UniProt Q9BZJ3+Q15661+Q9NRR2); experiment: Inhibitory activity of compound against human tryptase was determined; type: protein assay
Coagulation factor X = Coagulation factor X (Homo sapiens, UniProt P00742); experiment: Inhibitory activity of compound against Coagulation factor X was determined
Plasminogen = Plasminogen (Rattus norvegicus, UniProt Q01177); experiment: Inhibitory activity of compound against Plasmin was determined
Prothrombin = Prothrombin (Homo sapiens, UniProt P00734); experiment: Inhibitory activity of compound against Thrombin was determined
[1] = biological target: Tissue-type plasminogen activator (Homo sapiens, UniProt P00750); experiment: Inhibitory activity of compound against tissue type plasminogen activator was determined
Serine protease 1 = Serine protease 1 (Homo sapiens, UniProt P07477); experiment: Inhibitory activity of compound against Trypsin was determined
[2] = biological target: Urokinase-type plasminogen activator (Homo sapiens, UniProt P00749); experiment: Inhibitory activity of compound against Urokinase-type plasminogen activator was determined
[3] = Half-life of compound was determined at pH 7; type: ADME
[4] = Half-life of compound was determined at pH 9; type: ADME

Sequence of Tissue-type plasminogen activator (P00750 whole entry): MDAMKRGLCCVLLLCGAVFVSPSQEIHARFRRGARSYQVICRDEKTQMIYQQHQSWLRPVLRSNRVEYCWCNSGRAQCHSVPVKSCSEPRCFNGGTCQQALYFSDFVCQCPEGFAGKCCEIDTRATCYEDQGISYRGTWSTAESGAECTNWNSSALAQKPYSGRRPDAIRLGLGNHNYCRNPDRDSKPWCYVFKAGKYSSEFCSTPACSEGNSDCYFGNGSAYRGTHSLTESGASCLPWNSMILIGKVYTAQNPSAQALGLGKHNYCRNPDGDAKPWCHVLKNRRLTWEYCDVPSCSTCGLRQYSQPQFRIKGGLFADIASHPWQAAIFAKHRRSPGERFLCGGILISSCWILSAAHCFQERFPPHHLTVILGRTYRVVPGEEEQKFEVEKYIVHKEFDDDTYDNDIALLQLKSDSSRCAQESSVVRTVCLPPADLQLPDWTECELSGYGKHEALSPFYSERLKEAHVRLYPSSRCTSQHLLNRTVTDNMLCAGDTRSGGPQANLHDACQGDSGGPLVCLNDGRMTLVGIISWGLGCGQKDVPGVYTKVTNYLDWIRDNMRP
Sequence of Plasminogen (Q01177 97-581 limits assumed): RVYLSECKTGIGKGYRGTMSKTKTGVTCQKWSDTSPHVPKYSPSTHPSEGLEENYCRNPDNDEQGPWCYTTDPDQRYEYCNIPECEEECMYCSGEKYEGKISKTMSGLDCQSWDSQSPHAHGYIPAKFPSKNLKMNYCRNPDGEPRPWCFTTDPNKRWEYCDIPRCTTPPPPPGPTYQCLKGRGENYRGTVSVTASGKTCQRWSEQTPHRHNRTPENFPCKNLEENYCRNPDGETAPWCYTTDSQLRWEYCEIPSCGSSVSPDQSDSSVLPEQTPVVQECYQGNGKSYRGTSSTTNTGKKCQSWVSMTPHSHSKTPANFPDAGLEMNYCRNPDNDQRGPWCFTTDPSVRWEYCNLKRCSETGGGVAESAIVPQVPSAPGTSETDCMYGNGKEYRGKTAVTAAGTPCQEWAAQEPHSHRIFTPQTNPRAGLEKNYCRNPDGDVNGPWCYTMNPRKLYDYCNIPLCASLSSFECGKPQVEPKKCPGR
Sequence of Plasminogen (Q01177 582-812 limits assumed): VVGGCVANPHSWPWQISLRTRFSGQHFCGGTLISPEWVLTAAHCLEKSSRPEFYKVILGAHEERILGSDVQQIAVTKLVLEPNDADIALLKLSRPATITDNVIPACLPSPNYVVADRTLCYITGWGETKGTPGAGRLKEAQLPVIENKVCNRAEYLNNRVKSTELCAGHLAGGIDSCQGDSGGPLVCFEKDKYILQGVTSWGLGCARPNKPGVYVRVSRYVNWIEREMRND
Sequence of Coagulation factor X (P00742 41-179 limits assumed): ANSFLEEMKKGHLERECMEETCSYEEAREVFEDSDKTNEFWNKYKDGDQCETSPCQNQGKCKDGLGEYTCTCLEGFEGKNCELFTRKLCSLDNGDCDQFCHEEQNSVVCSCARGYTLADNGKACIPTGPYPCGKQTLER
Sequence of Coagulation factor X (P00742 235-488 limits assumed): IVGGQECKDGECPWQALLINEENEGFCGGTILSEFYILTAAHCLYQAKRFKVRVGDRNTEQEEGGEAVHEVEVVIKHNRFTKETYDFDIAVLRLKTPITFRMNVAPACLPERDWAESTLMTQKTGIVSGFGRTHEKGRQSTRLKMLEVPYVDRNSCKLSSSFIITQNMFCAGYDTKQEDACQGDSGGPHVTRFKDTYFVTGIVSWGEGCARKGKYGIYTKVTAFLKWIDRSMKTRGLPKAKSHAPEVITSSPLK
Sequence of Serine protease 1 (P07477 whole entry): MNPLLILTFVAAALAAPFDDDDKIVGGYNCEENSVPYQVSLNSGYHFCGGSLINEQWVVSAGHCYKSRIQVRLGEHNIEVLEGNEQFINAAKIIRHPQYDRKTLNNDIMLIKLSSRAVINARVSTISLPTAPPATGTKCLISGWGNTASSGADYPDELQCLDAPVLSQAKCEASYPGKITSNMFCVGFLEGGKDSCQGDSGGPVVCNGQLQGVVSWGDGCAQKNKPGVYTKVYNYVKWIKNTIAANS

Row | SMILES | IC50 (Tryptase) [nM] | further results
1 | N=C(N)N1CCC[C@H](C[C@H]2C(=O)N(C(=O)N3CCN(C(=O)CCCCCc4ccccc4)CC3)[C@@H]2C(=O)O)C1 | < 1.7 | 
2 | O=C(O)[C@@H]1[C@@H](CC2CCNCC2)C(=O)N1C(=O)Nc1ccccc1 | 147 | 
3 | O=C(O)[C@@H]1[C@@H](CCC2CCCNC2)C(=O)N1C(=O)N1CCN(C(=O)CCCCCc2ccccc2)CC1 (stereo not given in full) | 1.8 | IC50 (Coagulation factor X): > 33000 nM; IC50 (Plasminogen): 309 nM; IC50 (Prothrombin): > 33000 nM; IC50 [1]: > 33000 nM; IC50 (Serine protease 1): 10000 nM; IC50 [2]: > 33000 nM
4 | CC(C)C(OC(=O)N1CCN(C(=O)N2C(=O)[C@H](Cc3cccc(CN)c3)[C@H]2C(=O)O)CC1)C(C)C | 19 | 
5 | N=C(N)N1CCC(C[C@H]2C(=O)N(C(=O)Nc3ccccc3)[C@@H]2C(=O)O)CC1 | 515 | 
6 | CC(C)C(OC(=O)N1CCN(C(=O)N2C(=O)[C@H](Cc3ccnc(N)c3)[C@H]2C(=O)O)CC1)C(C)C | 61 | 
7 | CC(C)C(OC(=O)N1CCN(C(=O)N2C(=O)[C@H](Cc3ccc(CN)cc3)[C@H]2C(=O)O)CC1)C(C)C | 211 | 
8 | O=C(O)[C@@H]1[C@@H](CC2CCNCC2)C(=O)N1C(=O)N1CCN(C(=O)CCCCCc2ccccc2)CC1 | 1 | half-life [3]: > 48 h; half-life [4]: 35 h
9 | CC(C)C(OC(=O)N1CCN(C(=O)N2C(=O)[C@H](Cc3ccc(N)nc3)[C@H]2C(=O)O)CC1)C(C)C | 1053 | 
10 | N=C(N)N1CCC[C@@H](C[C@H]2C(=O)N(C(=O)N3CCN(C(=O)CCCCCc4ccccc4)CC3)[C@@H]2C(=O)O)C1 | < 1.7 | 
11 | CC(C)C(OC(=O)N1CCN(C(=O)N2C(=O)[C@H](CC3CCNCC3)[C@H]2C(=O)O)CC1)C(C)C | 29 | IC50 (Coagulation factor X): > 33000 nM; IC50 (Plasminogen): 6220 nM; IC50 (Prothrombin): > 33000 nM; IC50 [1]: > 33000 nM; IC50 (Serine protease 1): 935 nM; IC50 [2]: 7000 nM
12 | NCCCC[C@H]1C(=O)N(C(=O)N2CCN(C(=O)CCCCCc3ccccc3)CC2)[C@@H]1C(=O)O | < 1.7 | 
13 | CC(C)C(OC(=O)N1CCN(C(=O)N2C(=O)[C@H](CCCCN=C(N)N)[C@H]2C(=O)O)CC1)C(C)C (single isomer, unassigned) | 39 | 
14 | Nc1ccccn1 [2-AMINOPYRIDINE] |  | pKa (physchem): 7

Second part, led by results:

Row | IC50 (Tryptase) [nM] | SMILES | further results
15 | 1214 | CC(C)C(OC(=O)N1CCN(C(=O)N2C(=O)[C@H](CCC3CCNCC3)[C@H]2C(=O)O)CC1)C(C)C | 
16 | > 33000 | CC(C)C(OC(=O)N1CCN(C(=O)N2C(=O)[C@H](CCCN)[C@H]2C(=O)O)CC1)C(C)C | 
17 | 2605 | CC(C)C(OC(=O)N1CCN(C(=O)N2C(=O)[C@H](CC3CCNC3)[C@H]2C(=O)O)CC1)C(C)C (stereo not given in full) | 
18 | 7 | CC(C)C(OC(=O)N1CCN(C(=O)N2C(=O)[C@H](CCCCN)[C@H]2C(=O)O)CC1)C(C)C | 
19 | 32 | CC(C)C(OC(=O)N1CCN(C(=O)N2C(=O)[C@H](CCCCCCN)[C@H]2C(=O)O)CC1)C(C)C | 
20 | 17899 | CC(C)C(OC(=O)N1CCN(C(=O)N2C(=O)[C@H](CC3CCCNC3)[C@H]2C(=O)O)CC1)C(C)C (stereo not given in full) | 
21 | 34 | CC(C)C(OC(=O)N1CCN(C(=O)N2C(=O)[C@H](CCCCCN)[C@H]2C(=O)O)CC1)C(C)C | 
